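1) Cells in 96-well plates. 2) Compound, 48 h, 5 concentrations. 3) Linear interpolation between surrounding doses. 4) Unreached endpoint = highest concentration. GI50: concentration for 50% inhibition of growth.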 The source made the active and inactive calls. Cut-off read from the data, not from the text of the source: active = GI50 up to about 1.1 µM and inactive = higher.
How the values were obtained:
Assay in all cases: inhibition of tumour cell growth, NCI panel, 48 h
SNB-19 = test system: SNB-19
UACC-62 = test system: UACC-62
M14 = test system: M14
SF-268 = test system: SF-268
SK-MEL-2 = test system: SK-MEL-2
CAKI-1 = test system: CAKI-1
HT-29 = test system: HT-29
MDA-N = test system: MDA-N
A549 = test system: A549
SNB-75 = test system: SNB-75
OVCAR-3 = test system: OVCAR-3
NCI-H522 = test system: NCI-H522
NCI-H226 = test system: NCI-H226
ACHN = test system: ACHN
BT-549 = test system: BT-549
SN12C = test system: SN12C
IGROV-1 = test system: IGROV-1
K562 = test system: K562
T47D = test system: T47D
A498 = test system: A498

SMILES	GI50 (SNB-19)	GI50 (UACC-62)	GI50 (M14)	GI50 (SF-268)	GI50 (SK-MEL-2)	GI50 (CAKI-1)	GI50 (HT-29)	GI50 (MDA-N)	GI50 (A549)	GI50 (SNB-75)	GI50 (OVCAR-3)	GI50 (NCI-H522)	GI50 (NCI-H226)	GI50 (ACHN)	GI50 (BT-549)	GI50 (SN12C)	GI50 (IGROV-1)	GI50 (K562)	GI50 (T47D)	GI50 (A498)
COc1cn2c(cc1=O)COc1ccc(-c3ccccc3)cc1-2	40 µM (inactive)	44 µM (inactive)	45.4 µM (inactive)	60.8 µM (inactive)	> 100 µM (inactive)	43.4 µM (inactive)	45.4 µM (inactive)	49.5 µM (inactive)	39.6 µM (inactive)	35.8 µM (inactive)	> 55.7 µM (inactive)	27.9 µM (inactive)	64.6 µM (inactive)	48.4 µM (inactive)	24.7 µM (inactive)	77.3 µM (inactive)	38.8 µM (inactive)	89.3 µM (inactive)	20.5 µM (inactive)	–
COC(=O)C#Cc1cccc(OC)c1OC	60.3 µM (inactive)	48.3 µM (inactive)	49.7 µM (inactive)	–	–	28.6 µM (inactive)	27 µM (inactive)	40.7 µM (inactive)	37.5 µM (inactive)	–	41.1 µM (inactive)	–	43.3 µM (inactive)	60 µM (inactive)	62.2 µM (inactive)	48.1 µM (inactive)	–	21.1 µM (inactive)	> 100 µM (inactive)	45 µM (inactive)
O=C1c2ccccc2-c2c1c(-c1ccc(F)cc1)nc1ccc3ccccc3c21	> 100 µM (inactive)	> 100 µM (inactive)	> 100 µM (inactive)	> 100 µM (inactive)	> 100 µM (inactive)	> 100 µM (inactive)	> 100 µM (inactive)	> 100 µM (inactive)	> 100 µM (inactive)	> 100 µM (inactive)	> 100 µM (inactive)	–	> 100 µM (inactive)	> 100 µM (inactive)	> 100 µM (inactive)	> 100 µM (inactive)	–	> 100 µM (inactive)	> 100 µM (inactive)	> 100 µM (inactive)
O=S(=O)(c1ccccc1)C(c1ccc2ccccc2n1)S(=O)(=O)c1ccccc1	> 100 µM (inactive)	–	–	> 100 µM (inactive)	–	> 100 µM (inactive)	> 100 µM (inactive)	> 100 µM (inactive)	> 100 µM (inactive)	> 100 µM (inactive)	> 100 µM (inactive)	90.2 µM (inactive)	> 100 µM (inactive)	> 100 µM (inactive)	> 100 µM (inactive)	> 100 µM (inactive)	> 100 µM (inactive)	> 100 µM (inactive)	–	> 100 µM (inactive)
O=S(=O)(Nc1nccs1)c1ccc(Nc2nc(-c3cccs3)nc3ccc(I)cc23)cc1	14.5 µM (inactive)	19.2 µM (inactive)	22.4 µM (inactive)	12.6 µM (inactive)	38.5 µM (inactive)	9.91 µM (inactive)	18.7 µM (inactive)	32.5 µM (inactive)	26.7 µM (inactive)	36.4 µM (inactive)	14.2 µM (inactive)	19.4 µM (inactive)	35.1 µM (inactive)	29.6 µM (inactive)	11.9 µM (inactive)	25.4 µM (inactive)	17.4 µM (inactive)	14.8 µM (inactive)	8.43 µM (inactive)	–
CNC(=S)N/N=C(\C(=N/NC(=S)NC)c1ccccn1)c1ccccn1	10.3 µM (inactive)	4.59 µM (inactive)	2.14 µM (inactive)	1.19 µM (inactive)	14.3 µM (inactive)	5.04 µM (inactive)	< 0.01 µM (active)	44.3 µM (inactive)	5.74 µM (inactive)	20.8 µM (inactive)	0.31 µM (active)	1.77 µM (inactive)	2 µM (inactive)	2.99 µM (inactive)	14.4 µM (inactive)	4.08 µM (inactive)	0.759 µM (active)	4.55 µM (inactive)	–	4.58 µM (inactive)

— ChEMBL document CHEMBL1201862, “PubChem BioAssay data set” (2004)
